Results taken from ChEMBL document CHEMBL1153519, “Characterization of novel selective H1-antihistamines for clinical evaluation in the treatment of insomnia” (J Med Chem, 2009).
Active and inactive are the calls of the source. The rule behind the calls is not given here.

How the values were obtained:
Histamine H1 receptor = Histamine H1 receptor (Homo sapiens, UniProt P35367); test: Displacement of [3H]pyrilamine from human histamine H1 receptor expressed in CHO Flp-In cells by liquid scintillation counting; assay type: cell-based
[1] = molecular target: Histamine H3 receptor (Homo sapiens) (UniProt Q9Y5N1); test: Displacement of [3H]R-alpha-methylhistamine from human histamine H3 receptor expressed in CHO Flp-In cells by liquid scintillation counting; assay type: cell-based
Cytochrome P450 2D6 = Cytochrome P450 2D6 (Homo sapiens, UniProt P10635); test: Inhibition of recombinant CYP2D6 in presence of NADPH generating system
[2] = molecular target: Voltage-gated inwardly rectifying potassium channel KCNH2 (Homo sapiens, UniProt Q12809); test: Inhibition of human ERG expressed in HEK293 cells by patch-clamp technique
Cytochrome P450 3A4 = Cytochrome P450 3A4 (Homo sapiens, UniProt P08684); test: Inhibition of recombinant CYP3A4 in presence of NADPH generating system; assay type: ADME; settings: recombinant enzyme
Rattus norvegicus [3] = test: Increase in NREM sleep in CD IGS rat model of insomnia at 60 mg/kg, po after 4 hrs by EEG/EMG study relative to vehicle control; assay type: functional
Rattus norvegicus [4] = test: Effect on sleep-awake pattern in CD IGS rat model of insomnia assessed as latency to 20 secs REM sleep at 60 mg/kg, po by EEG/EMG study relative to vehicle control; assay type: functional
Rattus norvegicus [5] = test: Effect on sleep-awake pattern in CD IGS rat model of insomnia assessed as latency to 1 min NREM sleep at 60 mg/kg, po by EEG/EMG study relative to vehicle control; assay type: functional
[6] = molecular target: T1, 5-hydroxytryptamine receptor 2A (Homo sapiens, UniProt P28223); test: Displacement of [3H]ketanserin from human 5HT2A receptor expressed in HEK293 Flp-In cells at 10 uM by liquid scintillation counting; assay type: cell-based
Rattus norvegicus [7] = test: Increase in REM sleep in CD IGS rat model of insomnia at 60 mg/kg, po after 4 hrs by EEG/EMG study relative to vehicle control; assay type: functional
in vitro [8] = settings: human, liver microsomes
[9] = molecular target: T2, Muscarinic acetylcholine receptor M1 (Homo sapiens, UniProt P11229); test: Displacement of [3H]N-methylscopolamine from human muscarinic M1 receptor expressed in CHO Flp-In cells by liquid scintillation counting; assay type: cell-based
T2 sequence (P11229 whole entry): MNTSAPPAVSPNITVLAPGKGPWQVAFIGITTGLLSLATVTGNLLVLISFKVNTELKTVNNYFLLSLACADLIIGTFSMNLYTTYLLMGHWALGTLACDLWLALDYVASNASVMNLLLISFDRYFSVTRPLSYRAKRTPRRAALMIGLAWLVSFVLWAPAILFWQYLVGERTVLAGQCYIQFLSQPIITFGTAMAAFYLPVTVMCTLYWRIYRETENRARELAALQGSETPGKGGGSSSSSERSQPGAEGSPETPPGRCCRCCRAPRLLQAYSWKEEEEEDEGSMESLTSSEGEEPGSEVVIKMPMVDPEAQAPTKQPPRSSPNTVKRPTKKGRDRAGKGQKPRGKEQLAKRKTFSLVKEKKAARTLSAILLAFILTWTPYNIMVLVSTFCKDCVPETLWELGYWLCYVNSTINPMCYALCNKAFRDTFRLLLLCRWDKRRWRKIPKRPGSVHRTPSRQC

[10] = molecular target: Muscarinic acetylcholine receptor M3 (Homo sapiens, UniProt P20309); test: Displacement of [3H]N-methylscopolamine from human muscarinic M3 receptor expressed in CHO Flp-In cells by liquid scintillation counting; assay type: cell-based
[11] = molecular target: T1, 5-hydroxytryptamine receptor 2A; test: Displacement of [3H]ketanserin from human 5HT2A receptor expressed in HEK293 Flp-In cells by liquid scintillation counting; assay type: cell-based
Rattus norvegicus [12] = test: Increase in NREM sleep in CD IGS rat model of insomnia at 30 mg/kg, po after 4 hrs by EEG/EMG study relative to vehicle control; assay type: functional
Rattus norvegicus [13] = test: Effect on sleep-awake pattern in CD IGS rat model of insomnia assessed as latency to 1 min NREM sleep at 30 mg/kg, po by EEG/EMG study relative to vehicle control; assay type: functional
Rattus norvegicus [14] = test: Increase in REM sleep in CD IGS rat model of insomnia at 30 mg/kg, po after 4 hrs by EEG/EMG study relative to vehicle control; assay type: functional
Rattus norvegicus [15] = test: Effect on sleep-awake pattern in CD IGS rat model of insomnia assessed as latency to 20 secs REM sleep at 30 mg/kg, po by EEG/EMG study relative to vehicle control; assay type: functional
[16] = Plasma concentration in rat at 30 mg/kg, po after 1 hr
[17] = Drug level in rat brain at 30 mg/kg after 4 hrs by LC-MS-MS analysis; assay type: ADME, organism-based; parameters: dose 30 mg/kg; settings: read-out: Drug uptake
Cynomolgus monkey = test: Cardiotoxicity in conscious cynomolgus monkey assessed as decrease in heart rate up to 200 mg/kg administered as escalated dose with 1 week washout period between doses by telemetry study; assay type: toxicity, organism-based, Macaca fascicularis; parameters: dose 200 mg/kg; scale not given: the % may be the effect or the level left; settings: in vivo, 168 h
in vitro [18] = settings: rat, liver microsomes
[19] = Drug level in rat brain at 30 mg/kg after 1 hr by LC-MS-MS analysis; assay type: ADME, organism-based; parameters: dose 30 mg/kg; settings: read-out: Drug uptake
[20] = Systemic clearance in rat by LC-MS-MS analysis; settings: human, in vivo
[21] = Elimination half life in human at 50 mg, po; assay type: ADME, organism-based; settings: in vivo, read-out: beta t1/2 (converted)
[22] = Half life in human; assay type: ADME, organism-based; settings: in vivo

Chain of Histamine H3 receptor (Homo sapiens) (Q9Y5N1 whole entry): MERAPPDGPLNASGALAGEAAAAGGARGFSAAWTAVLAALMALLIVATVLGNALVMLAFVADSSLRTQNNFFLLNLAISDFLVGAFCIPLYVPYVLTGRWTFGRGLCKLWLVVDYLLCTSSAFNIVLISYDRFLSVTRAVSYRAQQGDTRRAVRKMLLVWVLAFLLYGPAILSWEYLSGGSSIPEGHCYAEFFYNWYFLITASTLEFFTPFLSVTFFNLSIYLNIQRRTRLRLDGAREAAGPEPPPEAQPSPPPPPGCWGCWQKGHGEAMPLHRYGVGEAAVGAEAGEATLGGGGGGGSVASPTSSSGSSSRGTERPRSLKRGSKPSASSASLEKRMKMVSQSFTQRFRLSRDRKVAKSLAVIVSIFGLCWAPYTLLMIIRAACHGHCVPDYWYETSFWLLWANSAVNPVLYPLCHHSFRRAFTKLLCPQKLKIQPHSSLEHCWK
Chain of Cytochrome P450 2D6 (P10635 whole entry): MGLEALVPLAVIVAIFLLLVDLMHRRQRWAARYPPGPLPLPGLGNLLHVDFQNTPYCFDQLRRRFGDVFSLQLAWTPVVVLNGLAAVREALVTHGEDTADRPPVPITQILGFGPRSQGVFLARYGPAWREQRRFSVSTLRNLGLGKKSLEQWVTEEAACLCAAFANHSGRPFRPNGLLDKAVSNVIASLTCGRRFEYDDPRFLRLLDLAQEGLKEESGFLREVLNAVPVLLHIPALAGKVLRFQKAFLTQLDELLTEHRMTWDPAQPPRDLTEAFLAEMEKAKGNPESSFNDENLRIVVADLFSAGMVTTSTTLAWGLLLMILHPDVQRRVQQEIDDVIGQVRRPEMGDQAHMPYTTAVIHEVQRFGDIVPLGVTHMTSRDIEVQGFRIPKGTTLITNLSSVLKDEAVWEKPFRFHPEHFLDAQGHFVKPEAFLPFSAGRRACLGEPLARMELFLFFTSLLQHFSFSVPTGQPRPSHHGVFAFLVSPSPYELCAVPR
T1 sequence (P28223 whole entry): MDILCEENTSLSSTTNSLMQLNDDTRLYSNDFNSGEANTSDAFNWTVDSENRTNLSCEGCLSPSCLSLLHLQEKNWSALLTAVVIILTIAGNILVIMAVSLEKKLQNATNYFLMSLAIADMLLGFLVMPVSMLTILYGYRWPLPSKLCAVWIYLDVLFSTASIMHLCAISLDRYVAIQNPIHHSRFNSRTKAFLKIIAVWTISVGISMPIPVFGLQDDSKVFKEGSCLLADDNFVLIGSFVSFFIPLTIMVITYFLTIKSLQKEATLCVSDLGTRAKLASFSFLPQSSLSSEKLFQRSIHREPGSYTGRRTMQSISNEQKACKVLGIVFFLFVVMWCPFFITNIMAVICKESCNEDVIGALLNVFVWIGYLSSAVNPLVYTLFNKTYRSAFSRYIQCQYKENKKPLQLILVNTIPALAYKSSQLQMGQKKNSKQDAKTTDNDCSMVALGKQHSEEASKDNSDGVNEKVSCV
Chain of Histamine H1 receptor (P35367 whole entry): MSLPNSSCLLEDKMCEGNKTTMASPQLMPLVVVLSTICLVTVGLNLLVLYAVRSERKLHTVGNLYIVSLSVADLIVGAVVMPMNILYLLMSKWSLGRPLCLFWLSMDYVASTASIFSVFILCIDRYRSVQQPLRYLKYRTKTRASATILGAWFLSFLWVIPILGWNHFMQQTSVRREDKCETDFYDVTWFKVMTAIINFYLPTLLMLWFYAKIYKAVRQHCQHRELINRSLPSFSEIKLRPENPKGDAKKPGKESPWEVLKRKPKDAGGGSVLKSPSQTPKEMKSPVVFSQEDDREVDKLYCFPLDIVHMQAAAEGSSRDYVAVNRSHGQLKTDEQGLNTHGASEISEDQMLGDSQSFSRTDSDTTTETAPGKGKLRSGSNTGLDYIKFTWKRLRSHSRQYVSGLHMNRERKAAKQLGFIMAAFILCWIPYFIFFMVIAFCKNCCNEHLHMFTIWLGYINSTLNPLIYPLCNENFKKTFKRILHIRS
Chain of Voltage-gated inwardly rectifying potassium channel KCNH2 (Q12809 whole entry): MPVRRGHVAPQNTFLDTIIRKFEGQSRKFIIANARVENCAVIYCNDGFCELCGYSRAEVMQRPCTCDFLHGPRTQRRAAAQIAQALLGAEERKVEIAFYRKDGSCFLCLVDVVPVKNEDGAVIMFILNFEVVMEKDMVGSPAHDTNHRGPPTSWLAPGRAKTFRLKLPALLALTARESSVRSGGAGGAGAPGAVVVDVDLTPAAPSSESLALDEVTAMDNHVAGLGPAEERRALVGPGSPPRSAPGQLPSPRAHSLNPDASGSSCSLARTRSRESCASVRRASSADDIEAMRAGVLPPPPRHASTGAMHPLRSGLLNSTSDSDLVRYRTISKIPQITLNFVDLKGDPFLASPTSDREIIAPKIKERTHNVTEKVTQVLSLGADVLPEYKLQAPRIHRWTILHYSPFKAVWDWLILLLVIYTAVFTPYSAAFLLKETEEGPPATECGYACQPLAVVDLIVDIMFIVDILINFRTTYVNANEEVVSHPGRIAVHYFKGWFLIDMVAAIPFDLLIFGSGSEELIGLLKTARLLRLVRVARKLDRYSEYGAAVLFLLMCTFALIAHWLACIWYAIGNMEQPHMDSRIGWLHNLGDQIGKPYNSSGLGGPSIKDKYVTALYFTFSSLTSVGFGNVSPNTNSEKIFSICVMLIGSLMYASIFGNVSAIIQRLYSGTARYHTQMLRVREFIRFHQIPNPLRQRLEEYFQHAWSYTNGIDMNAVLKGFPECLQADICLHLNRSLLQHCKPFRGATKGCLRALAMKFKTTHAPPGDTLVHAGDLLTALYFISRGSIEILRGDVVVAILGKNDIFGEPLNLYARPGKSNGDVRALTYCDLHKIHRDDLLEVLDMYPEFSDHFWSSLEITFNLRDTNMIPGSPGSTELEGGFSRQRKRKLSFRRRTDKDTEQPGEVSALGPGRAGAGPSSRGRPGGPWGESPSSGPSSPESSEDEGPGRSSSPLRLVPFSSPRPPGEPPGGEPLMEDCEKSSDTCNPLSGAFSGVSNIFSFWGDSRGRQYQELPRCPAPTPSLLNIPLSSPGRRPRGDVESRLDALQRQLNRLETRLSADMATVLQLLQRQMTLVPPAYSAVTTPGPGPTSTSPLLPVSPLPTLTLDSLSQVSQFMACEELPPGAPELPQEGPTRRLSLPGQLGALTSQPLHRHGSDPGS
Chain of Cytochrome P450 3A4 (P08684 whole entry): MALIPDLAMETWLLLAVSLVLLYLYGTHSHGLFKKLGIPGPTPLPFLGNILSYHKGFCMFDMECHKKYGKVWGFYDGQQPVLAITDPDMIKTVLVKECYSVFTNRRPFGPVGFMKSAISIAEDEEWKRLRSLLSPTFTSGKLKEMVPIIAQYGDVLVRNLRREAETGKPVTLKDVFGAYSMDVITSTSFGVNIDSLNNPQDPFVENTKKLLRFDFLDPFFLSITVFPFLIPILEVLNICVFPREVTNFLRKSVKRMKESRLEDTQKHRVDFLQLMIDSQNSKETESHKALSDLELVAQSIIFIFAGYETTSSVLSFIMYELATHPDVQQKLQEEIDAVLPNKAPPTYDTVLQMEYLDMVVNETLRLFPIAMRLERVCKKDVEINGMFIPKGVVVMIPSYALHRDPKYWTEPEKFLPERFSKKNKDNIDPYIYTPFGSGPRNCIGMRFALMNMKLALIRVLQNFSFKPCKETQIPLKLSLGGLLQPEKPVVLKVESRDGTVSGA
Chain of Muscarinic acetylcholine receptor M3 (P20309 whole entry): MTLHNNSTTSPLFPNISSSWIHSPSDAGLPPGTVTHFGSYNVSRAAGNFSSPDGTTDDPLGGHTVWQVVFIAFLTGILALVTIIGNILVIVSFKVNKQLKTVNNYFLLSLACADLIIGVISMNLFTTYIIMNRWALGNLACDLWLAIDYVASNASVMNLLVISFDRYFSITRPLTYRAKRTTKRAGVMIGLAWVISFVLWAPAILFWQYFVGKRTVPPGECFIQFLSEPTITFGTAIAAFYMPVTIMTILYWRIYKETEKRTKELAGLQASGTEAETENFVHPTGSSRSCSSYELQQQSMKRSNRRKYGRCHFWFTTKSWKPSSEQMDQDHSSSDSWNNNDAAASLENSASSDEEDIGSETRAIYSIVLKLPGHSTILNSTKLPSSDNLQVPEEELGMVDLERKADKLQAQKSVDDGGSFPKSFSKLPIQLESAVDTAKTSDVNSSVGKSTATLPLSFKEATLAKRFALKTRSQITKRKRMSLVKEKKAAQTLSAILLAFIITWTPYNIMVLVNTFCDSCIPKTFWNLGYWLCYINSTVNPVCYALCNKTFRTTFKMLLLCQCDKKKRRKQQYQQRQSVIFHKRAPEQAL

Question: Which Ki (Histamine H1 receptor) does the source give for `CN(C)CCc1sc2ccccc2c1Cc1cnccn1` here?
Answer: 0.075 µM

Question: What about the Activity [1] of the same molecule?
Answer: inactive

Question: Which IC50 (Cytochrome P450 2D6) does the source give for `C[C@H](C1=C(CCN(C)C)Cc2ccccc21)c1ccccn1` here?
Answer: 32.5 µM

Question: And the IC50 [2]?
Answer: 0.9 µM

Question: What about the “inhibition (INH)” value (Cytochrome P450 3A4) of the same molecule?
Answer: Not Active

Question: What about the Activity (Rattus norvegicus [3]) of the same molecule?
Answer: 132%

Question: What about the Ki (Histamine H1 receptor) of the same molecule?
Answer: 0.0004 µM

Question: What about the Activity (Rattus norvegicus [4]) of the same molecule?
Answer: 136%

Question: What about the Activity (Rattus norvegicus [5]) of the same molecule?
Answer: 134%

Question: And the Activity [6]?
Answer: 33%

Question: And the Activity [1]?
Answer: inactive

Question: What about the Activity (Rattus norvegicus [7]) of the same molecule?
Answer: 126%

Question: And the CLhep predicted at 1 h, 1 µM (in vitro [8])?
Answer: 7 mL/min/kg

Question: And the Ki [9]?
Answer: 2.4 µM

Question: With `C[C@@H](c1ccccn1)c1c(CCN(C)C)oc2ccccc12` as the molecule, how does the Ki (Histamine H1 receptor) read?
Answer: 0.0009 µM

Question: What about the Ki [10] of the same molecule?
Answer: 0.076 µM

Question: What about the Activity [6] of the same molecule?
Answer: 62%

Question: And the Activity [1]?
Answer: inactive

Question: What about the CLhep predicted at 1 h, 1 µM (in vitro [8]) of the same molecule?
Answer: 10 mL/min/kg

Question: And the Ki [9]?
Answer: 0.32 µM

Question: For `CN(C)CCC1=C(Cc2cnccn2)c2ccccc2C1`, which Ki [11] is on record?
Answer: 0.6 µM

Question: And the Activity (Rattus norvegicus [3])?
Answer: 159%

Question: What about the Activity (Rattus norvegicus [4]) of the same molecule?
Answer: 92%

Question: What about the Activity (Rattus norvegicus [5]) of the same molecule?
Answer: 79%

Question: And the Activity [1]?
Answer: inactive

Question: What about the Activity (Rattus norvegicus [7]) of the same molecule?
Answer: 113%

Question: For `Cc1ccc(-c2nc3ccc(C)cn3c2CC(=O)N(C)C)cc1` [ZOLPIDEM], which Activity (Rattus norvegicus [12]) is on record?
Answer: 220%

Question: And the Activity (Rattus norvegicus [13])?
Answer: 18%

Question: What about the Activity (Rattus norvegicus [14]) of the same molecule?
Answer: 42%

Question: What about the Activity (Rattus norvegicus [15]) of the same molecule?
Answer: 199%

Question: With `C[C@@H](c1ccccn1)c1c(CCN(C)C)sc2ccccc12` as the molecule, how does the IC50 (Cytochrome P450 2D6) read?
Answer: 28.2 µM

Question: And the concentration at 1 h [16]?
Answer: 4 ng/mL

Question: What about the Activity (Rattus norvegicus [12]) of the same molecule?
Answer: 142%

Question: What about the IC50 [2] of the same molecule?
Answer: 1.4 µM

Question: What about the concentration at 4 h [17] of the same molecule?
Answer: 23 ng/mL

Question: And the Activity (Cynomolgus monkey)?
Answer: 16%

Question: And the CLint scaled at 1 h, 1 µM (in vitro [18])?
Answer: 2300 mL/min/kg

Question: And the Ki (Histamine H1 receptor)?
Answer: 0.004 µM

Question: And the concentration at 1 h [19]?
Answer: 29 ng/mL

Question: What about the Activity [6] of the same molecule?
Answer: 31%

Question: And the Activity (Rattus norvegicus [13])?
Answer: 124%

Question: What about the Activity (Rattus norvegicus [14]) of the same molecule?
Answer: 167%

Question: What about the Activity [1] of the same molecule?
Answer: inactive

Question: And the clearance [20]?
Answer: 5.2 mL/min/kg

Question: What about the Activity (Rattus norvegicus [15]) of the same molecule?
Answer: 138%

Question: What about the CLhep predicted at 1 h, 1 µM (in vitro [8]) of the same molecule?
Answer: 10 mL/min/kg

Question: What about the Ki [9] of the same molecule?
Answer: 5.3 µM

Question: What does the source list for `CC(C1=C(CCN(C)C)Cc2ccccc21)c1ccccn1` (racemic)?
Answer: half-life [21]: 18 h; half-life [22]: 5 h

Question: For `CN(C)CCc1sc2ccccc2c1Cc1ccc(F)cc1`, which IC50 (Cytochrome P450 2D6) is on record?
Answer: 0.2 µM

Question: And the Ki [11]?
Answer: 0.09 µM

Question: What about the Ki (Histamine H1 receptor) of the same molecule?
Answer: 0.011 µM

Question: And the Activity [1]?
Answer: inactive

Question: And the CLhep predicted at 1 h, 1 µM (in vitro [8])?
Answer: 16 mL/min/kg

Question: And the Ki [9]?
Answer: 2 µM

Question: With `CN(C)CCC1=C(Cc2ccc(F)cc2)c2ccccc2C1` as the molecule, how does the IC50 (Cytochrome P450 2D6) read?
Answer: 0.3 µM

Question: What about the Ki [11] of the same molecule?
Answer: 0.14 µM

Question: And the Ki (Histamine H1 receptor)?
Answer: 0.0006 µM

Question: What about the Activity [1] of the same molecule?
Answer: inactive

Question: What about the CLhep predicted at 1 h, 1 µM (in vitro [8]) of the same molecule?
Answer: 13 mL/min/kg

Question: What does the source list for `C[C@H](C1=C(CCN(C)C)Cc2ccccc21)c1cnccn1`?
Answer: Activity (Rattus norvegicus [3]): 145%; Activity (Rattus norvegicus [4]): 104%; Activity (Rattus norvegicus [5]): 109%; Activity [6]: 32%; Activity [1]: inactive; Activity (Rattus norvegicus [7]): 129%
